{"source": "patent US20090170195A1", "about": "“CURCUMIN-HYALURONAN COMPOUNDS” (KENT STATE UNIVERSITY, priority 2007, published 2009)", "key": {"[1]": {"tested_on": "MDAMB231", "experiment": "MTS cytotoxicity assay, MDAMB231", "assay_type": "cell-based", "settings": "Homo sapiens, MDA-MB-231; MDAMB231, MTS cell viability", "method": "(§1) Cytotoxicity effect of dissociable curcumin-hyaluronan complex, the curcumin-hyaluronan complex having a substantially non-acid labile covalent bond and free curcumin was detected by MTS (3-(4,5-dimethylthiazol-2yl)-5-(3-[…]-2-(4-sulfophenyl)-2H-tetrazolium) assay. The formazan color intensity was measured directly from 96 well plates in terms of absorbance at 490 nm and 630 nm using a 96-well multi-scanner (MRX Revelation; Dynex Technologies). For calculating cell viability (%) all the appropriate correction was made and the IC50 values were determined from sigmoidal fitting of the data. FIGS. 3-5 represent confocal microscopy images representing the uptake of curcumin and the dissociable complex into the C-13, NIH3T3 and RA-8001 cell lines."}, "[2]": {"tested_on": "C-13", "experiment": "MTS cytotoxicity assay, C-13", "assay_type": "cell-based", "settings": "Homo sapiens, C13; C-13, MTS cell viability", "method": "as §1"}, "[3]": {"tested_on": "MCF7 (Dox resistance)", "experiment": "MTS cytotoxicity assay, MCF7 (Dox resistance)", "assay_type": "cell-based", "settings": "Homo sapiens, MTS cell viability", "method": "as §1"}, "[4]": {"tested_on": "NIH3T3", "experiment": "MTS cytotoxicity assay, NIH3T3", "assay_type": "cell-based", "settings": "Mus musculus; NIH3T3, MTS cell viability", "method": "as §1"}, "[5]": {"tested_on": "RA-8001", "experiment": "MTS cytotoxicity assay, RA-8001", "assay_type": "cell-based", "settings": "Homo sapiens; RA-8001, MTS cell viability", "method": "as §1"}, "[6]": {"tested_on": "MCF7", "settings": "from Simon et al., Cancer Lett., (1998), 129, 111; cited from earlier work"}}}
{"smiles": "COc1cc(/C=C/C(=O)CC(=O)/C=C/c2ccc(O)c(OC)c2)ccc1O", "note": "[Curcumin]", "values": [{"measurement": "IC50", "setting": "[1]", "value": "27.5 ± 3.36", "unit": "µM"}, {"measurement": "IC50", "setting": "[2]", "value": 22.2, "unit": "µM"}, {"measurement": "IC50", "setting": "[3]", "value": "27.4 ± 0.892", "unit": "µM"}, {"measurement": "IC50", "setting": "[4]", "value": "23.9 ± 3.19", "unit": "µM"}, {"measurement": "IC50", "setting": "[5]", "value": "11.1 ± 2.3", "unit": "µM"}, {"measurement": "IC50", "setting": "[6]", "value": 15, "unit": "µM"}]}
